Data as given in paper PMC5218480 (PLoS ONE, 2017).

Test system: MV-4-11 cells
Test: Gene expression microarray analysis (Affymetrix PrimeView) and GSEA
Format: cell-based, human
Parameters: RFU PODN (11730768_x_at) / Fold change /veh PODN (11730768_x_at) / RFU LINC00158 (11744669_a_at) / Fold change /veh LINC00158 (11744669_a_at) / RFU DUSP10 (11751237_a_at) / Fold change /veh DUSP10 (11751237_a_at) / RFU ID3 (11757404_x_at) / Fold change /veh ID3 (11757404_x_at) / RFU PLEKHG5 (11737974_s_at) / Fold change /veh PLEKHG5 (11737974_s_at) / RFU LRRC4B (11730491_at) / Fold change /veh LRRC4B (11730491_at) / RFU GIMAP4 (11747438_a_at) / Fold change /veh GIMAP4 (11747438_a_at) / RFU KRT8 (11758183_x_at) / Fold change /veh KRT8 (11758183_x_at) / RFU CNN1 (11734310_a_at) / Fold change /veh CNN1 (11734310_a_at) / RFU VPS37D (11726825_at) / Fold change /veh VPS37D (11726825_at) / RFU C10orf10 (11716522_x_at) / Fold change /veh C10orf10 (11716522_x_at) / RFU KIR2DL2 /// KIR2DL4 /// KIR2DL5A /// KIR2DL5B /// KIR2DS1 /// KIR2DS2 /// KIR2DS3 /// KIR2DS4 /// KIR3DL3 /// KIR3DL3 /// KIR3DS1 (11738374_at) / Fold change /veh KIR2DL2 /// KIR2DL4 /// KIR2DL5A /// KIR2DL5B /// KIR2DS1 /// KIR2DS2 /// KIR2DS3 /// KIR2DS4 /// KIR3DL3 /// KIR3DL3 /// KIR3DS1 (11738374_at) / RFU C1QL1 (11718748_at) / Fold change /veh C1QL1 (11718748_at) / RFU TMPRSS4 (11747572_a_at) / Fold change /veh TMPRSS4 (11747572_a_at) / RFU HAMP (11756126_x_at) / Fold change /veh HAMP (11756126_x_at) / RFU RNFT2 (11725882_a_at) / Fold change /veh RNFT2 (11725882_a_at) / RFU NR4A2 (11747474_a_at) / Fold change /veh NR4A2 (11747474_a_at) / RFU ABCC12 (11746883_a_at) / Fold change /veh ABCC12 (11746883_a_at) / RFU TMEM136 (11760407_x_at) / Fold change /veh TMEM136 (11760407_x_at) / RFU CLDN22 /// WWC2 (11732394_at) / Fold change /veh CLDN22 /// WWC2 (11732394_at) / RFU HLA-DPB1 (11760878_x_at) / Fold change /veh HLA-DPB1 (11760878_x_at) / RFU SPINT1 (11716480_a_at) / Fold change /veh SPINT1 (11716480_a_at) / RFU GAP43 (11754022_s_at) / Fold change /veh GAP43 (11754022_s_at) / RFU A4GNT (11735810_at) / Fold change /veh A4GNT (11735810_at) / RFU PRB3 (11715151_x_at) / Fold change /veh PRB3 (11715151_x_at) / RFU TUBB4B (11761932_at) / Fold change /veh TUBB4B (11761932_at) / RFU CAPN14 (11732068_a_at) / Fold change /veh CAPN14 (11732068_a_at) / RFU TMCC2 (11721928_a_at) / Fold change /veh TMCC2 (11721928_a_at) / RFU IRGQ (11745062_a_at) / Fold change /veh IRGQ (11745062_a_at) / RFU FAM174B (11720279_a_at) / Fold change /veh FAM174B (11720279_a_at) / RFU TMPRSS4 (11748680_a_at) / Fold change /veh TMPRSS4 (11748680_a_at) / RFU FAM212B (11763350_a_at) / Fold change /veh FAM212B (11763350_a_at) / RFU PLEKHG5 (11743358_a_at) / Fold change /veh PLEKHG5 (11743358_a_at) / RFU ZSCAN30 (11745921_a_at) / Fold change /veh ZSCAN30 (11745921_a_at) / RFU CMKLR1 (11741424_a_at) / Fold change /veh CMKLR1 (11741424_a_at) / RFU LOC101060620 /// MAPK8IP1 (11723275_at) / Fold change /veh LOC101060620 /// MAPK8IP1 (11723275_at) / RFU SPTSSB (11747773_x_at) / Fold change /veh SPTSSB (11747773_x_at) / RFU PRSS12 (11739890_at) / Fold change /veh PRSS12 (11739890_at) / RFU BIN1 (11741810_x_at) / Fold change /veh BIN1 (11741810_x_at) / RFU WNT11 (11732464_a_at) / Fold change /veh WNT11 (11732464_a_at) / RFU C10orf10 (11716521_a_at) / Fold change /veh C10orf10 (11716521_a_at) / RFU C5orf56 (11738089_at) / Fold change /veh C5orf56 (11738089_at) / RFU CYB561 (11721691_x_at) / Fold change /veh CYB561 (11721691_x_at) / RFU ANKRD19P (11752326_a_at) / Fold change /veh ANKRD19P (11752326_a_at) / RFU OR2T12 /// OR2T33 /// OR2T8 (11738714_s_at) / Fold change /veh OR2T12 /// OR2T33 /// OR2T8 (11738714_s_at) / RFU VCAN (11748164_a_at) / Fold change /veh VCAN (11748164_a_at) / RFU JSRP1 (11732532_at) / Fold change /veh JSRP1 (11732532_at) / RFU KRTAP10-11 (11738290_x_at) / Fold change /veh KRTAP10-11 (11738290_x_at) / RFU MYO3A (11730013_a_at) / Fold change /veh MYO3A (11730013_a_at) / RFU EBF3 (11725865_a_at) / Fold change /veh EBF3 (11725865_a_at) / RFU CAMK2N1 (11719241_x_at) / Fold change /veh CAMK2N1 (11719241_x_at) / RFU C5orf56 (11738088_a_at) / Fold change /veh C5orf56 (11738088_a_at) / RFU OLFML3 (11715873_a_at) / Fold change /veh OLFML3 (11715873_a_at) / RFU LOC100653217 /// NTM (11731650_a_at) / Fold change /veh LOC100653217 /// NTM (11731650_a_at) / RFU MAPK11 (11762145_a_at) / Fold change /veh MAPK11 (11762145_a_at) / RFU FIZ1 (11724087_x_at) / Fold change /veh FIZ1 (11724087_x_at) / RFU OASL (11726364_x_at) / Fold change /veh OASL (11726364_x_at) / RFU SOX15 (11748057_x_at) / Fold change /veh SOX15 (11748057_x_at) / RFU CD79A (11719716_a_at) / Fold change /veh CD79A (11719716_a_at) / RFU HIST1H1D (11736915_at) / Fold change /veh HIST1H1D (11736915_at) / RFU CASKIN2 (11723855_a_at) / Fold change /veh CASKIN2 (11723855_a_at) / RFU LOC730098 (11760151_x_at) / Fold change /veh LOC730098 (11760151_x_at) / RFU OR4N2 (11742367_at) / Fold change /veh OR4N2 (11742367_at) / RFU PRRT2 (11749266_a_at) / Fold change /veh PRRT2 (11749266_a_at) / RFU SNX32 (11753110_a_at) / Fold change /veh SNX32 (11753110_a_at) / RFU CDHR5 (11726645_a_at) / Fold change /veh CDHR5 (11726645_a_at) / RFU RCAN1 (11760418_a_at) / Fold change /veh RCAN1 (11760418_a_at) / RFU FAM167A (11723789_a_at) / Fold change /veh FAM167A (11723789_a_at) / RFU FAM26E (11764081_at) / Fold change /veh FAM26E (11764081_at) / RFU ISYNA1 (11749810_s_at) / Fold change /veh ISYNA1 (11749810_s_at) / RFU ACY1 (11761880_at) / Fold change /veh ACY1 (11761880_at) / RFU 11764098_at / Fold change /veh 11764098_at / RFU SAMD14 (11745864_x_at) / Fold change /veh SAMD14 (11745864_x_at) / RFU NPB (11741838_a_at) / Fold change /veh NPB (11741838_a_at) / RFU TMPRSS6 (11731388_a_at) / Fold change /veh TMPRSS6 (11731388_a_at) / RFU KRTAP10-2 (11738614_at) / Fold change /veh KRTAP10-2 (11738614_at) / RFU ARHGAP8 /// PRR5-ARHGAP8 (11727945_x_at) / Fold change /veh ARHGAP8 /// PRR5-ARHGAP8 (11727945_x_at) / RFU KRTAP5-7 /// NADSYN1 (11734609_at) / Fold change /veh KRTAP5-7 /// NADSYN1 (11734609_at) / RFU RASL12 (11751679_a_at) / Fold change /veh RASL12 (11751679_a_at) / RFU CDKN2B (11736163_a_at) / Fold change /veh CDKN2B (11736163_a_at) / RFU PRF1 (11729649_at) / Fold change /veh PRF1 (11729649_at) / RFU, ZNF638 /// ZNF638-IT1 / Fold change vs veh, ZNF638 /// ZNF638-IT1 / RFU, PANK3 / Fold change vs veh, PANK3 / RFU, SH3YL1 / Fold change vs veh, SH3YL1 / RFU, ZEB2 / Fold change vs veh, ZEB2 / RFU, NRIP1 / Fold change vs veh, NRIP1 / RFU, PTTG1IP / Fold change vs veh, PTTG1IP / RFU, CAPN2 / Fold change vs veh, CAPN2 / RFU, MED14 / Fold change vs veh, MED14 / RFU, SNORA58 / Fold change vs veh, SNORA58 / RFU, C1orf63 / Fold change vs veh, C1orf63 / RFU, LRRFIP1 / Fold change vs veh, LRRFIP1 / RFU, NDUFAF7 / Fold change vs veh, NDUFAF7 / RFU, SLC12A2 / Fold change vs veh, SLC12A2 / RFU, IBTK / Fold change vs veh, IBTK / RFU, ESF1 / Fold change vs veh, ESF1 / Fold change vs veh, TMEM50B / RFU, TAOK1 / Fold change vs veh, TAOK1 / RFU, ACBD3 / Fold change vs veh, ACBD3 / RFU, TMA16 / Fold change vs veh, TMA16 / RFU, RWDD3 / Fold change vs veh, RWDD3 / RFU, BCAT1 / Fold change vs veh, BCAT1 / RFU, EDEM3 / Fold change vs veh, EDEM3 / RFU, TMEM33 / Fold change vs veh, TMEM33 / RFU, WDR75 / Fold change vs veh, WDR75 / RFU, AHCTF1 / Fold change vs veh, AHCTF1 / RFU, TFRC / Fold change vs veh, TFRC / RFU, ZDHHC17 / Fold change vs veh, ZDHHC17 / RFU, NOM1 / Fold change vs veh, NOM1 / RFU, ARL8B / Fold change vs veh, ARL8B / RFU, ZBTB11 / Fold change vs veh, ZBTB11 / RFU, TAMM41 / Fold change vs veh, TAMM41 / RFU, KIAA1704 /// LOC100996395 / Fold change vs veh, KIAA1704 /// LOC100996395 / RFU, ING1 / Fold change vs veh, ING1 / RFU, TRMT61B / Fold change vs veh, TRMT61B / RFU, FUBP3 / Fold change vs veh, FUBP3 / RFU, TP53 / Fold change vs veh, TP53 / RFU, TNKS2 / Fold change vs veh, TNKS2 / RFU, ZFP14 / Fold change vs veh, ZFP14 / RFU, ACTR2 / Fold change vs veh, ACTR2 / RFU, PPP3R1 / Fold change vs veh, PPP3R1 / RFU, PIK3R1 / Fold change vs veh, PIK3R1 / RFU, HNRNPA1 / Fold change vs veh, HNRNPA1 / RFU, RNF170 / Fold change vs veh, RNF170 / RFU, ZNF28 / Fold change vs veh, ZNF28 / RFU, RNGTT / Fold change vs veh, RNGTT / RFU, OGT / Fold change vs veh, OGT / RFU, BRD1 / Fold change vs veh, BRD1 / RFU, MARS / Fold change vs veh, MARS / RFU, ZNF655 / Fold change vs veh, ZNF655 / RFU, FAHD1 / Fold change vs veh, FAHD1 / RFU, BDP1 / Fold change vs veh, BDP1 / RFU, LRRCC1 / Fold change vs veh, LRRCC1 / RFU, ARID1A / Fold change vs veh, ARID1A / RFU, ZNF146 / Fold change vs veh, ZNF146 / RFU, ZNF330 / Fold change vs veh, ZNF330 / RFU, GPN3 / Fold change vs veh, GPN3 / RFU, C9orf123 / Fold change vs veh, C9orf123 / RFU, N4BP2L2 / Fold change vs veh, N4BP2L2 / RFU, ARFIP1 / Fold change vs veh, ARFIP1 / RFU, FAM179B / Fold change vs veh, FAM179B / RFU, BCL10 / Fold change vs veh, BCL10 / RFU, UHRF1BP1L / Fold change vs veh, UHRF1BP1L / RFU, BET1 / Fold change vs veh, BET1 / RFU, CNOT2 / Fold change vs veh, CNOT2 / RFU, ZNF268 / Fold change vs veh, ZNF268 / Fold change vs veh, ZNF507 / RFU, DGCR2 / Fold change vs veh, DGCR2 / RFU, WDSUB1 / Fold change vs veh, WDSUB1 / Fold change vs veh, HSP90B1 /// MIR3652 / RFU, ADSS / Fold change vs veh, ADSS / RFU, GK / Fold change vs veh, GK / RFU, ZNF148 / Fold change vs veh, ZNF148 / RFU, TAF9 / Fold change vs veh, TAF9 / RFU, SLC1A5 / Fold change vs veh, SLC1A5 / RFU, SLMO2 / Fold change vs veh, SLMO2 / RFU, ABCC4 / Fold change vs veh, ABCC4 / RFU, LOC101060439 /// RAP1B / Fold change vs veh, LOC101060439 /// RAP1B / RFU, RFX7 / Fold change vs veh, RFX7 / RFU, GTPBP10 / Fold change vs veh, GTPBP10 / RFU, CNEP1R1 / Fold change vs veh, CNEP1R1 / RFU, BIVM-ERCC5 /// ERCC5 / Fold change vs veh, BIVM-ERCC5 /// ERCC5 / RFU, ILF3 / Fold change vs veh, ILF3 / RFU 11762660_at / Fold change /veh 11762660_at / RFU VCAN (11757783_s_at) / Fold change /veh VCAN (11757783_s_at) / RFU DDX43 (11728927_at) / Fold change /veh DDX43 (11728927_at) / RFU KRT8 (11758188_x_at) / Fold change /veh KRT8 (11758188_x_at) / RFU NKD1 (11759106_at) / Fold change /veh NKD1 (11759106_at) / RFU SRD5A1 (11742802_a_at) / Fold change /veh SRD5A1 (11742802_a_at) / RFU TPSAB1 /// TPSB2 (11721975_s_at) / Fold change /veh TPSAB1 /// TPSB2 (11721975_s_at) / RFU GSTM3 (11746129_a_at) / Fold change /veh GSTM3 (11746129_a_at) / RFU IL23R (11737362_x_at) / Fold change /veh IL23R (11737362_x_at) / RFU TMEM51 (11727254_a_at) / Fold change /veh TMEM51 (11727254_a_at) / RFU PIWIL2 (11732686_x_at) / Fold change /veh PIWIL2 (11732686_x_at) / RFU ORM1 (11744905_x_at) / Fold change /veh ORM1 (11744905_x_at) / RFU CCDC152 (11743942_at) / Fold change /veh CCDC152 (11743942_at) / RFU ECM1 (11717891_a_at) / Fold change /veh ECM1 (11717891_a_at) / RFU IL23R (11748794_a_at) / Fold change /veh IL23R (11748794_a_at) / RFU TNFAIP8L3 (11732012_x_at) / Fold change /veh TNFAIP8L3 (11732012_x_at) / RFU MBOAT4 (11741988_at) / Fold change /veh MBOAT4 (11741988_at) / RFU 11764193_at / Fold change /veh 11764193_at / RFU TMEM53 (11763286_at) / Fold change /veh TMEM53 (11763286_at) / RFU MAGEB2 (11727129_at) / Fold change /veh MAGEB2 (11727129_at) / RFU TMEM200A (11744735_a_at) / Fold change /veh TMEM200A (11744735_a_at) / RFU CCDC152 (11751479_a_at) / Fold change /veh CCDC152 (11751479_a_at) / RFU FAM211A (11726209_a_at) / Fold change /veh FAM211A (11726209_a_at) / RFU RGS16 (11746705_a_at) / Fold change /veh RGS16 (11746705_a_at) / RFU VCAN (11755009_s_at) / Fold change /veh VCAN (11755009_s_at) / RFU RHOB (11743442_s_at) / Fold change /veh RHOB (11743442_s_at) / RFU RGS16 (11720943_a_at) / Fold change /veh RGS16 (11720943_a_at) / RFU RGS16 (11720944_at) / Fold change /veh RGS16 (11720944_at) / RFU, VPS4B / Fold change vs veh, VPS4B / RFU, CREB1 / Fold change vs veh, CREB1 / RFU, DNAJC13 / Fold change vs veh, DNAJC13 / RFU, GNAQ / Fold change vs veh, GNAQ / RFU, CDK5R1 / Fold change vs veh, CDK5R1 / RFU, ZRANB3 / Fold change vs veh, ZRANB3 / RFU, CUL4A / Fold change vs veh, CUL4A / RFU, CCNY / Fold change vs veh, CCNY / RFU, UFL1 / Fold change vs veh, UFL1 / RFU, COG3 / Fold change vs veh, COG3 / RFU, DIAPH2 / Fold change vs veh, DIAPH2 / RFU, SKA2 / Fold change vs veh, SKA2 / RFU, AFF3 / Fold change vs veh, AFF3 / RFU, LMF1 / Fold change vs veh, LMF1 / RFU, IPO11 / Fold change vs veh, IPO11 / RFU, DFFB / Fold change vs veh, DFFB / RFU, FOXP1 / Fold change vs veh, FOXP1 / RFU, CARD8 / Fold change vs veh, CARD8 / RFU, STRN3 / Fold change vs veh, STRN3 / RFU, ADK / Fold change vs veh, ADK / RFU, RASSF2 / Fold change vs veh, RASSF2 / RFU, WIPF1 / Fold change vs veh, WIPF1 / RFU, LARP1B / Fold change vs veh, LARP1B / RFU, RASA1 / Fold change vs veh, RASA1 / RFU, RB1 / Fold change vs veh, RB1 / RFU, PPFIA1 / Fold change vs veh, PPFIA1 / RFU, MAT2A / Fold change vs veh, MAT2A / RFU, CCT5 / Fold change vs veh, CCT5 / RFU, WDR92 / Fold change vs veh, WDR92 / RFU, CUX1 / Fold change vs veh, CUX1 / RFU, TTC7A / Fold change vs veh, TTC7A / RFU, TMEM135 / Fold change vs veh, TMEM135 / RFU, DEPTOR / Fold change vs veh, DEPTOR / RFU, CPM / Fold change vs veh, CPM / RFU, DNAJB6 / Fold change vs veh, DNAJB6 / RFU, CACNA2D3 / Fold change vs veh, CACNA2D3 / RFU, DTX4 / Fold change vs veh, DTX4 / RFU, TFCP2 / Fold change vs veh, TFCP2 / RFU, GMCL1 /// GMCL1P1 / Fold change vs veh, GMCL1 /// GMCL1P1 / RFU, AEBP2 / Fold change vs veh, AEBP2 / RFU, SNHG1 /// SNORD22 /// SNORD25 /// SNORD26 /// SNORD27 /// SNORD28 /// SNORD29 /// SNORD31 / Fold change vs veh, SNHG1 /// SNORD22 /// SNORD25 /// SNORD26 /// SNORD27 /// SNORD28 /// SNORD29 /// SNORD31 / Fold change (Aza/veh), C12orf56 (ProbeSet 11735607_a_at) / Fold change (ACY-1035/veh), C12orf56 (ProbeSet 11735607_a_at) / Fold change (Aza/veh), FGFR1OP (ProbeSet 11751329_s_at) / Fold change (ACY-1035/veh), FGFR1OP (ProbeSet 11751329_s_at) / Fold change (Aza/veh), VPS36 (ProbeSet 11739960_a_at) / Fold change (ACY-1035/veh), VPS36 (ProbeSet 11739960_a_at) / RFU SYPL1 (11715823_x_at) / Fold change /veh SYPL1 (11715823_x_at) / RFU IGFBP7 (11715501_s_at) / Fold change /veh IGFBP7 (11715501_s_at) / RFU REEP3 (11722064_at) / Fold change /veh REEP3 (11722064_at) / RFU IGLL1 (11728026_x_at) / Fold change /veh IGLL1 (11728026_x_at): dose or concentration left out as unconfirmed
Conditions: MV-4-11 cells, 48 hours

For `Nc1ccc(-c2cccs2)cc1NC(=O)c1ccc2c(c1)cc(C1CC1)n2CCN1CCOCC1` [ACY-1035], the “RFU PIWIL2 (11732686_x_at)” value was 9.71 RFU.
